Source: patent US20120238447A1 (priority 2009, published 2012)
Like-named read-outs stand apart in the source and are kept apart here.

Key:
[1] = test system: Septoria tritici; assay: Activity against leaf blotch on wheat caused by Septoria tritici (microtiter plate test); assay type: cell-based; details: MTP, 405 nm, 7 days after inoculation, 18° C
[2] = test system: Pyricularia oryzae; assay type: cell-based; details: MTP, 405 nm, 7 days after inoculation, 18° C, efficacy from relative growth in %

Structure (SMILES) | Observed efficacy ([1]; Triazamat alone, 0.25 ppm) | Observed efficacy ([2]; triazamat alone, 1 ppm) | Observed efficacy ([1]; Pyraclostrobin alone, 0.001 ppm) | Observed efficacy ([2]; pyraclostrobin alone, 0.004 ppm)
CCOC(=O)CSc1nc(C(C)(C)C)nn1C(=O)N(C)C [triazamat, triazamate] | 4 | 4 |  | 
COC(=O)N(OC)c1ccccc1COc1ccn(-c2ccc(Cl)cc2)n1 [pyraclostrobin] |  |  | 7 | 23
